Data: patent US20210300940A1 (Merck Patent GmbH, priority 2018, published 2021)

Legend:
TLR7 = molecular target: T1, TLR7 (Homo sapiens, UniProt Q9NYK1); assay: HEK/293 TLR7 Cell Assay; type: cell-based; details: TLR7/NFKb HEK cells, R848 agonist 10 uM final concentration, Steady-Glo readout; read-out: TLR7 potency
T1 construct: expressed in transfected cells; host or cells: HEK/293 cells carrying TLR7 and an NF-kB luciferase reporter
T1 sequence (Q9NYK1 27-1049): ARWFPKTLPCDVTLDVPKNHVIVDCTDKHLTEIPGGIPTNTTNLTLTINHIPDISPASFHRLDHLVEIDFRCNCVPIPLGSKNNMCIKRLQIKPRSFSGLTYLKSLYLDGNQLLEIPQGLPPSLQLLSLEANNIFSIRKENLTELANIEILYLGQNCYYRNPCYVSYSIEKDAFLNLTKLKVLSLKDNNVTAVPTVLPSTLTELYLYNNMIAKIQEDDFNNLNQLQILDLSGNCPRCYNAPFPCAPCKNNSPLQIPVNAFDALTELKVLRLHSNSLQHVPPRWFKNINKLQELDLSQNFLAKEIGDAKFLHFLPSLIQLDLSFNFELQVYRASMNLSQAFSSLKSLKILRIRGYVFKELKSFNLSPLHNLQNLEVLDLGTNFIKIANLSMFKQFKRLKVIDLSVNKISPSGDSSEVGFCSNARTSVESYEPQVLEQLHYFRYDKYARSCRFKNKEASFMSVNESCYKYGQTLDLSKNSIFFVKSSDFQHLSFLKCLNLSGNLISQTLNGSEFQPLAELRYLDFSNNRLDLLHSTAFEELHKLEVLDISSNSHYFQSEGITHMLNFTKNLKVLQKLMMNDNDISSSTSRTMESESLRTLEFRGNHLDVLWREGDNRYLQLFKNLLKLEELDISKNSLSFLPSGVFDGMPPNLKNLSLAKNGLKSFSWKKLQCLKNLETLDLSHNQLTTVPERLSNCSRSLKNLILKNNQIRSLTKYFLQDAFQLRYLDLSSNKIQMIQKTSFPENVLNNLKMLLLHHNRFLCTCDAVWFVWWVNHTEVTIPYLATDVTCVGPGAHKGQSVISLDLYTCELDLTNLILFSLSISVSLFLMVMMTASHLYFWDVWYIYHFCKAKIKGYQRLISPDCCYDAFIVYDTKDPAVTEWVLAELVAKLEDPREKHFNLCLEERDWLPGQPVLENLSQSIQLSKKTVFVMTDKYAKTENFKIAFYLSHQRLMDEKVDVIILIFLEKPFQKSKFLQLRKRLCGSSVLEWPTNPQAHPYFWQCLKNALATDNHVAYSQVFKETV
How it was run: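 TLR7/NF-κB reporter HEK293 cells, 5000/well, cultured 24 h, then preincubated 30 min with compound before R848 agonist (10 uM final). After 5 h stimulation, Steady-Glo luciferase luminescence read.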

TLR8 = molecular target: T2, TLR8 (Homo sapiens, UniProt Q9NR97); assay: HEK/293 TLR8 Cell Assay; type: cell-based; details: HEK cells, R848 agonist 30 uM final concentration, Steady-Glo readout; read-out: TLR8 potency
T2 construct: expressed in transfected cells; host or cells: HEK/293 reporter cells (NF-kB luciferase)
T2 sequence (Q9NR97 27-1041): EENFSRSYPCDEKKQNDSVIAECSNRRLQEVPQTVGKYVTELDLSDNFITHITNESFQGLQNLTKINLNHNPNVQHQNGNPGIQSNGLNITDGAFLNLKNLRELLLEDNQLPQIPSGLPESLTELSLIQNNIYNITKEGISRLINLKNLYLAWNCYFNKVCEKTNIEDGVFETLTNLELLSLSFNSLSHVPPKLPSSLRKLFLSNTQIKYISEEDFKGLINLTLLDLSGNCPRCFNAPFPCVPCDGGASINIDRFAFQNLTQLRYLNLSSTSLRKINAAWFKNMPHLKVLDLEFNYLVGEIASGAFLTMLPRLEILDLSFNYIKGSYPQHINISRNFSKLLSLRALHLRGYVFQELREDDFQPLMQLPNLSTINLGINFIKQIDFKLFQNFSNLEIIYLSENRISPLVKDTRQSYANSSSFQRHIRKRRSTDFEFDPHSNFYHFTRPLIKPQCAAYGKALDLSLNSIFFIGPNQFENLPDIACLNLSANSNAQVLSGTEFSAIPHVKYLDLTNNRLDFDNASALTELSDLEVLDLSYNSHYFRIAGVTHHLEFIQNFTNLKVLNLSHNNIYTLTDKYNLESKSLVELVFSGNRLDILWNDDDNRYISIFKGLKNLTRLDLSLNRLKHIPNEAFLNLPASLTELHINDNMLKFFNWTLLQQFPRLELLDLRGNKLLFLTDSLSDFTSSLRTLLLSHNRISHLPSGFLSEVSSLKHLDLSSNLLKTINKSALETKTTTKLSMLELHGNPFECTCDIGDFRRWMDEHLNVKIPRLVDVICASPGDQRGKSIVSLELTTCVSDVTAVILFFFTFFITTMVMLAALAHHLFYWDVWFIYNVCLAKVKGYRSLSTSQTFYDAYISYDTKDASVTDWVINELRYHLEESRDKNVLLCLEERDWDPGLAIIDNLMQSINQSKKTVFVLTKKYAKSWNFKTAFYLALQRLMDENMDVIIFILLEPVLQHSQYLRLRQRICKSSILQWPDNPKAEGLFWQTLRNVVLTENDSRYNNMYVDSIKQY

## C[C@@H]1CN(c2ccc(C#N)c3nccnc23)C[C@H](CN2CC(C)(O)C2)O1 [Example 218, 8-[(2S,6R)-2-(3-Hydroxy-3-methyl-azetidin-1-ylmethyl)-6-methyl-morpholin-4-yl]-quinoxaline-5-carbonitrile]
TLR7
  IC50: < 75 nM
TLR8
  IC50: > 150 nM

## CC(C(=O)N[C@@H]1C[C@H](C(F)(F)F)CN(c2ccc(C#N)c3nccnc23)C1)N1CCN(C)CC1 (single isomer, unassigned) [Example 98]
TLR7
  IC50: < 75 nM
TLR8
  IC50: < 75 nM

## CN1CC[C@@](F)(CNC(=O)[C@H]2CN(c3cnc(C#N)c4ncccc34)C[C@@H](C(F)(F)F)O2)C1 (single isomer, unassigned) [Example 350]
TLR7
  IC50: > 150 nM
TLR8
  IC50: > 150 nM

## C[C@H]1C[C@@H](OCCN2CCCCC2)CN(c2ccc(C#N)c3nccnc23)C1 [Example 5, 8-[(3S,5R)-3-methyl-5-[2-(piperidin-1-yl)ethoxy]piperidin-1-yl]quinoxaline-5-carbonitrile]
TLR7
  IC50: < 75 nM
TLR8
  IC50: < 75 nM

## C[C@@H]1CN(c2ccc(C#N)c3ncncc23)C[C@H](C(=O)NC2CCC(N3CCOCC3)CC2)O1 (stereo partly drawn) [Example 268, (2R,6R)-4-(8-Cyano-quinazolin-5-yl)-6-methyl-morpholine-2-carboxylic acid (4-morpholin-4-yl-cyclohexyl)-amide]
TLR7
  IC50: < 75 nM
TLR8
  IC50: < 75 nM

## C[C@H]1C[C@@H](NC(=O)CCN2CCOCC2)CN(c2ccc(C#N)c3nccnc23)C1 [Example 194, N-[(3R,5S)-1-(8-Cyano-quinoxalin-5-yl)-5-methyl-piperidin-3-yl]-3-morpholin-4-yl-propionamide]
TLR7
  IC50: 75 to 150 nM
TLR8
  IC50: < 75 nM

## C[C@@H](C(=O)N[C@@H]1C[C@H](C(F)(F)F)CN(c2ccc(C#N)c3nccnc23)C1)N1CCN(C)CC1 (single isomer, unassigned) [Example 99]
TLR7
  IC50: 75 to 150 nM
TLR8
  IC50: < 75 nM

## N#Cc1ccc(N2C[C@H](CN3CC(O)C3)O[C@H](C(F)(F)F)C2)c2nccnc12 (single isomer, unassigned) [Example 361]
TLR7
  IC50: < 75 nM
TLR8
  IC50: 75 to 150 nM

## C[C@H]1C[C@@H](NC(=O)[C@@H](N)CC(N)=O)CN(c2ccc(C(F)(F)F)c3ncccc23)C1 [Example 128, (2S)-2-amino-N-[(3R,5S)-5-methyl-1-[8-(trifluoromethyl)quinolin-5-yl]piperidin-3-yl]butanediamide]
TLR7
  IC50: < 75 nM
TLR8
  IC50: < 75 nM

## Cc1ncc(N2C[C@H](NC(=O)CN3CCN(C)CC3)C[C@H](C(F)(F)F)C2)c2cccnc12 [Example 70, N-[(3R,5S)-1-(8-methyl-1,7-naphthyridin-5-yl)-5-(trifluoromethyl)piperidin-3-yl]-2-(4-methylpiperazin-1-yl)acetamide]
TLR7
  IC50: 75 to 150 nM
TLR8
  IC50: 75 to 150 nM

## Cc1c(F)cc(N2C[C@H](NC(=O)CC3C4CC3CN(C)C4)C[C@H](C(F)(F)F)C2)c2cccnc12 (stereo partly drawn) [Example 113, N-[(3R,5S)-1-(7-Fluoro-8-methyl-quinolin-5-yl)-5-trifluoromethyl-piperidin-3-yl]-2-(3-methyl-3-aza-bicyclo[3.1.1]hept-6-yl)-acetamide]
TLR7
  IC50: 75 to 150 nM
TLR8
  IC50: < 75 nM

## COc1ncc(N2C[C@@H](C)C[C@@H](N)C2)c2nccnc12 [Example 199, (3R,5S)-1-(5-Methoxy-pyrido[3,4-b]pyrazin-8-yl)-5-methyl-piperidin-3-ylamine]
TLR7
  IC50: 75 to 150 nM
TLR8
  IC50: < 75 nM

## C[C@H]1C[C@@H](OCCN2CCCCC2)CN(c2ccc(C(F)(F)F)c3ncccc23)C1 (racemic) [Example 3, 5-[cis-3-methyl-5-[2-(piperidin-1-yl)ethoxy]piperidin-1-yl]-8-(trifluoromethyl)quinolone]
TLR7
  IC50: > 150 nM
TLR8
  IC50: < 75 nM

## C[C@@H]1CN(c2ccc(C#N)c3nccnc23)C[C@H](CSC[C@@H](O)CO)O1 (single isomer, unassigned) [Example 230]
TLR7
  IC50: < 75 nM
TLR8
  IC50: < 75 nM

## C[C@H]1C[C@@H](NS(=O)(=O)NC(=O)CC2CCN(C)CC2)CN(c2ccc(C(F)(F)F)c3ncccc23)C1 [Example 202, N-{[(3R,5S)-5-methyl-1-[8-(trifluoromethyl)quinolin-5-yl]piperidin-3-yl]sulfamoyl}-2-(1-methylpiperidin-4-yl)acetamide]
TLR7
  IC50: 75 to 150 nM
TLR8
  IC50: < 75 nM

## C[C@H]1C[C@@H](NC(=O)[C@@H]2CCCN2)CN(c2ccc(C(F)(F)F)c3ncccc23)C1 [Example 176, (S)-Pyrrolidine-2-carboxylic acid [(3R,5S)-5-methyl-1-(8-trifluoromethyl-quinolin-5-yl)-piperidin-3-yl]-amide]
TLR7
  IC50: 75 to 150 nM
TLR8
  IC50: < 75 nM

## C[C@H]1C[C@@H](NC(=O)CC2(O)CCN(C)CC2)CN(c2ccc(C(F)(F)F)c3ncccc23)C1 [Example 84, 2-(4-hydroxy-1-methylpiperidin-4-yl)-N-[(3R,5S)-5-methyl-1-[8-(trifluoromethyl)quinolin-5-yl]piperidin-3-yl]acetamide]
TLR7
  IC50: < 75 nM
TLR8
  IC50: < 75 nM

## C[C@@H]1CN(c2cnc(C#N)c3ncccc23)C[C@H](C(=O)NC2CCN(CC3CC3)C2)O1 (stereo partly drawn) [Example 272, (2R,6R)-4-(8-Cyano-[1,7]naphthyridin-5-yl)-6-methyl-morpholine-2-carboxylic acid (1-cyclopropylmethyl-pyrrolidin-3-yl)-amide]
TLR7
  IC50: < 75 nM
TLR8
  IC50: < 75 nM

## C[C@@H]1CN(c2cnc(C#N)c3ncccc23)C[C@H](C(=O)NC[C@@H]2CN(C)CCO2)O1 [Example 275, (2R,6R)-4-(8-Cyano-[1,7]naphthyridin-5-yl)-6-methyl-morpholine-2-carboxylic acid ((R)-4-methyl-morpholin-2-ylmethyl)-amide]
TLR7
  IC50: < 75 nM
TLR8
  IC50: < 75 nM

## C[C@@H](C(=O)N[C@@H]1C[C@H](C(F)(F)F)CN(c2ccc(C#N)c3ncccc23)C1)N1CCN(C)CC1 (single isomer, unassigned) [Example 101]
TLR7
  IC50: < 75 nM
TLR8
  IC50: < 75 nM

## C[C@@H]1CN(c2cnc(C#N)c3ncccc23)C[C@H](C(=O)NCC2(F)CCNCC2)O1 [Example 300, (2R,6R)-4-(8-Cyano-[1,7]naphthyridin-5-yl)-6-methyl-morpholine-2-carboxylic acid (4-fluoro-piperidin-4-ylmethyl)-amide]
TLR7
  IC50: < 75 nM
TLR8
  IC50: 75 to 150 nM

## C[C@@H]1CN(c2ccc(C#N)c3nccnc23)C[C@H](C(=O)NC[C@H]2CN(C)CCO2)O1 (single isomer, unassigned) [Example 324]
TLR7
  IC50: < 75 nM
TLR8
  IC50: < 75 nM
